23 compounds from patent US20200216439A1, “HETERO-1,5,6,7-TETRAHYDRO-4H-INDOL-4-ONES” (BAYER PHARMA AKTIENGESELLSCHAFT, priority 2015, published 2020) can be followed below.

This experiment addresses T1, catalytic domain of human Bub1 (amino acids 704-1085) (Homo sapiens, UniProt O43683).
T1 construct: catalytic domain of human Bub1 (amino acids 704-1085); His6 (N); made in house; host or cells: Hi5 insect cells
The experiment is described as follows: Bub1 kinase assay (TR-FRET). Format: biochemical. As to conditions: TR-FRET; ATP 10 μM, peptide substrate 1 μM; 60 min at 22° C.; average or median if tested more than once; read-out: Inhibition of Bub1 kinase IC50. The method, boiled down: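 Eleven concentrations (0.1 nM–20 μM, duplicate) fitted by 4-parameter logistic for IC50. Read-out: EDTA-stopped TR-FRET (665/620 nm) detecting anti-phosphoserine binding to biotin-peptide (1 μM). Reaction used 10 μM ATP, 60 min at 22 °C, after 15 min compound preincubation with His-tagged human Bub1 704-1085.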
For orientation: Time-resolved FRET reads energy transfer from a long-lived donor to a nearby acceptor.

pIC50: −log10 of the molar value.

T1 sequence (O43683 704-1085): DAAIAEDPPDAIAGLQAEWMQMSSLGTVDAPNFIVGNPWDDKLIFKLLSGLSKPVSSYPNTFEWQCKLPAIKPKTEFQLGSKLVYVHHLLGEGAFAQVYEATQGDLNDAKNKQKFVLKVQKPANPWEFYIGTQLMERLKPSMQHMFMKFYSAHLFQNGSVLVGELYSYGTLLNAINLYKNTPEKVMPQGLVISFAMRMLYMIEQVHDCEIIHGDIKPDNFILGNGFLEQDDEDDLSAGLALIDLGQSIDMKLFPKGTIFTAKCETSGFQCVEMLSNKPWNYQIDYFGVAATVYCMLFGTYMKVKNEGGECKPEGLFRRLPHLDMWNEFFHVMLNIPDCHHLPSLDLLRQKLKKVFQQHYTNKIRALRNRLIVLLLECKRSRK

One may read the pIC50 as the negative decadic logarithm of the IC50, by convention in mol/L. As to `O=C1CN(C(=O)N2CCOCC2)Cc2[nH]c(-c3ccncc3OCC(F)(F)F)c(Nc3ccccc3)c21` [Example 245, 6-(Morpholin-4-ylcarbonyl)-3-(phenylamino)-2-[3-(2,2,2-trifluoroethoxy)pyridin-4-y]1,5,6,7-tetrahydro-4H-pyrrolo[2,3-c]pyridin-4-one], the pIC50 is 7.14.
As to `O=C1CNCc2[nH]c(-c3ccncc3Cl)c(Nc3ccccc3)c21` [Example 2, 2-(3-Chloropyridin-4-yl)-3-(phenylamino)-1,5,6,7-tetrahydro-4H-pyrrolo[2,3-c]pyridin-4-one], the pIC50 was 6.63.
To `CN(C)C(=O)N1CC(=O)c2c([nH]c(-c3ccncc3)c2Nc2ccccc2)C1` [Example 82] belongs 8.40; to `COc1cnccc1-c1[nH]c2c(c1Nc1ccccc1)C(=O)CN(S(=O)(=O)C(F)F)C2` [Example 110, 6-[(Difluoromethyl)sulfonyl]-2-(3-methoxypyridin-4-yl)-3-(phenylamino)-1,5,6,7-tetrahydro-4H-pyrrolo[2,3-c]pyridin-4-one], 8.22; to `O=C1CN(C(=O)C2CC2)Cc2[nH]c(-c3ccnc(NC(=O)[C@@H]4C[C@@H]4F)c3)c(Nc3ccccc3)c21` [Example 212, (1S,2S)—N-4-[6-(Cyclopropylcarbonyl)-4-oxo-3-(phenylamino)-4,5,6,7-tetrahydro-1H-pyrrolo[2,3-c]pyridin-2-yl]pyridin-2-yl-2-fluorocyclopropanecarboxamide], 8.52.
For `CC(C)(C)SC(=O)N1CC(=O)c2c([nH]c(-c3ccncc3OCC(F)F)c2Nc2ccccc2)C1` [Example 304, S-tert-Butyl 3-anilino-2-[3-(2,2-difluoroethoxy)pyridin-4-yl]-4-oxo-1,4,5,7-tetrahydro-6H-pyrrolo[2,3c]pyridine-6-carbothioate] the value was 6.63.
With `Nc1cc(-c2[nH]c3c(c2Nc2ccccc2)C(=O)CNC3)ccn1` [Example 21, 2-(2-Aminopyridin-4-yl)-3-(phenylamino)-1,5,6,7-tetrahydro-4H-pyrrolo[2,3-c]pyridin-4-one], the pIC50 was 6.10.
For the compound `CCC(=O)N1CC(=O)c2c([nH]c(-c3ccncc3)c2Nc2ccccc2)C1` [Example 8, 3-(phenylamino)-6-propanoyl-2-(pyridin-4-yl)-1,5,6,7-tetrahydro-4H-pyrrolo[2,3-c]pyridin-4-one], the pIC50 is 8.40.
For `CNC(=O)N1CC(=O)c2c([nH]c(-c3ccnc(NC(C)=O)c3)c2Nc2ccc(F)cc2)C1` [Example 313, 2-[2-(Acetylamino)pyridin-4-yl]-3-[(4-fluorophenyl)amino]-N-methyl-4-oxo-1,4,5,7-tetrahydro-6H-pyrrolo[2,3-c]pyridine-6-carboxamide] the value was 7.77; for `O=C1CN(C(=O)CCO)Cc2[nH]c(-c3ccnc(NC(=O)[C@@H]4C[C@@H]4F)c3)c(Nc3ccccc3)c21` [Example 202, (1S,2S)-2-Fluoro-N-4-[6-(3-hydroxypropanoyl)-4-oxo-3-(phenylamino)-4,5,6,7-tetrahydro-1H-pyrrolo[2,3-c]pyridin-2-yl]pyridin-2-ylcyclopropanecarboxamide], 8.10; for `CCOC(=O)N1CC(=O)c2c([nH]c(-c3ccnc(NC(C)=O)c3)c2Nc2ccccc2)C1` [Example 183, Ethyl 2-(2-acetamidopyridin-4-yl)-3-anilino-4-oxo-1,4,5,7-tetrahydro-6H-pyrrolo[2,3-c]pyridine-6-carboxylate], 8.05.
To `CC(C)S(=O)(=O)N1CC(=O)c2c([nH]c(-c3ccncc3OCC(F)(F)F)c2Nc2ccccc2)C1` [Example 247, 3-(Phenylamino)-6-(propan-2-ylsulfonyl)-2-[3-(2,2,2-trifluoroethoxy)pyridin-4-yl]-1,5,6,7-tetrahydro-4H-pyrrolo[2,3-c]pyridin-4-one] belongs 7.19; to `CCOC(=O)N1CC(=O)c2c([nH]c(-c3ccnc(NC(=O)[C@@H]4C[C@@H]4F)c3)c2Nc2ccccc2)C1` [Example 215, Ethyl 2-[2-([(1S,2S)-2-fluorocyclopropyl]carbonylamino)pyridin-4-yl]-4-oxo-3-(phenylamino)-1,4,5,7-tetrahydro-6H-pyrrolo[2,3-c]pyridine-6-carboxylate], 8.40; to `CC(C)(F)C(=O)Nc1cc(-c2[nH]c3c(c2Nc2ccccc2)C(=O)CN(S(=O)(=O)c2cnc[nH]2)C3)ccn1` [Example 162, N-{4-[3-Anilino-6(1H-imidazol-5-ylsulfonyl)-4-oxo-4,5,6,7-tetrahydro-1H-pyrrolo[2,3-c]pyridin-2-yl]pyridin-2-yl}-2-fluoro-2-methylpropanamide], 7.42.
To `CS(=O)(=O)CCNC(=O)N1CC(=O)c2c([nH]c(-c3ccncc3)c2Nc2ccccc2)C1` [Example 89, N-[2-(Methylsulfonyl)ethyl]-4-oxo-3-(phenylamino)-2-(pyridin-4-yl)-1,4,5,7-tetrahydro-6H-pyrrolo[2,3-c]pyridine-6-carboxamide] belongs 7.51; to `O=C1CNCc2[nH]c(-c3ccncc3OCC3CC3)c(Nc3ccccc3)c21` [Example 227, 3-anilino-2-[3-(cyclopropylmethoxy)pyridin-4-yl]-1,5,6,7-tetrahydro-4H-pyrrolo[2,3-c]pyridin-4-one], 6.85; to `COc1cc(C(=O)Nc2cc(-c3[nH]c4c(c3Nc3ccccc3)C(=O)CN(C(C)=O)C4)ccn2)ccc1F` [Example 258], 8.00.
Turning to `CC(=O)Nc1cc(-c2[nH]c3c(c2Nc2ccccc2)C(=O)CN(C(=O)CCC(C)(C)C)C3)ccn1` [Example 179, N-{4-[3-Anilino-6-(4,4-dimethylpentanoyl)-4-oxo-4,5,6,7-tetrahydro-1H-pyrrolo[2,3-c]pyridin-2-yl]pyridin-2-yl}acetamide], the pIC50 is 7.20.
For `O=C1CNCc2[nH]c(-c3ccncc3F)c(Nc3ccccc3)c21` [Example 101, 2-(3-Fluoropyridin-4-yl)-3-(phenylamino)-1,5,6,7-tetrahydro-4H-pyrrolo[2,3-c]pyridin-4-one] the value was 7.37.
For `CN(C)C(=O)N1CC(=O)c2c([nH]c(-c3ccncc3OCC(F)(F)F)c2Nc2ccccc2)C1` [Example 244, N,N-Dimethyl-4-oxo-3-(phenylamino)-2-[3-(2,2,2-trifluoroethoxy)pyridin-4-yl]-1,4,5,7-tetrahydro-6H-pyrrolo[2,3-c]pyridine-6-carboxamide] the value was 7.74; for `O=C1CN(C(=O)N2CCNC2=O)Cc2[nH]c(-c3ccncc3)c(Nc3ccccc3)c21` [Example 91, 6-[(2-Oxoimidazolidin-1-yl)carbonyl]-3-(phenylamino)-2-(pyridin-4-yl)-1,5,6,7-tetrahydro-4H-pyrrolo[2,3-c]pyridin-4-one], 7.85; for `CC(C)OC(=O)N1CC(=O)c2c([nH]c(-c3ccnc(NC(=O)C4(F)CC4)c3)c2Nc2ccccc2)C1` [Example 159, Isopropyl 3-anilino-2-{2-([(1-fluorocyclopropyl)carbonyl]amino}pyridin-4-yl)-4-oxo-1,4,5,7-tetrahydro-6H-pyrrolo[2,3-c]pyridine-6-carboxylate], 7.66.
For `CC(=O)Nc1cc(-c2[nH]c3c(c2Nc2ccccc2)C(=O)CN(C(=O)CCC(F)(F)F)C3)ccn1` [Example 190, N-{4-[3-Anilino-4-oxo-6-(4,4,4-trifluorobutanoyl)-4,5,6,7-tetrahydro-1H-pyrrolo[2,3-c]pyridin-2-yl]pyridin-2-yl}acetamide] the value was 6.87.
